The text below walks through data of patent US8367710B2, “Bicyclo-substituted pyrazolon azo derivatives, preparation process and pharmaceutical use thereof” (Jiangsu Hengrui Medicine Co. Ltd., priority 2008, dated 2013).

Series [1] deals with T1, human TPO receptor (Homo sapiens, UniProt P40238).
T1 sequence (P40238 26-635): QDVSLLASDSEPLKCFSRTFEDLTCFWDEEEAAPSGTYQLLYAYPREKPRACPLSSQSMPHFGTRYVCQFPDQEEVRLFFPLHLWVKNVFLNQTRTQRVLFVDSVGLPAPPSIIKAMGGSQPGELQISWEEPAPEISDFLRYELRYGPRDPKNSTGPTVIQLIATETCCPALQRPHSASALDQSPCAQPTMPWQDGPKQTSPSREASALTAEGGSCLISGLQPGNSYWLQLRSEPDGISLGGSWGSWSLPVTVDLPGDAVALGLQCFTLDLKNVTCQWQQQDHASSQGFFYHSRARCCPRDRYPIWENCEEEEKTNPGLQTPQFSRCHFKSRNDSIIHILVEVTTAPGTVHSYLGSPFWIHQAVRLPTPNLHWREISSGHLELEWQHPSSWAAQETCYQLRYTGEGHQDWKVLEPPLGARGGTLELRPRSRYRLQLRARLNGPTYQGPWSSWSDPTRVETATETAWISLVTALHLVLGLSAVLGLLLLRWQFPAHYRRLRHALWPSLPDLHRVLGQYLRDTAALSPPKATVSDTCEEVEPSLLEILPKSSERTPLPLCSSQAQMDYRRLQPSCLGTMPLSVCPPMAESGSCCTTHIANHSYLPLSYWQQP
Description: pro-proliferation effect on BAF3-TPOR cell (CCK-8). The class given is cell-based, mouse. The settings on record: BAF3-TPOR cells, proliferation relative to rhTPO positive control. The method, then: The sequence of primers which contains multi-sites mutation was designed as follows: […]
The E. coli DH5α competent cell was transformed with mutated plasmid, and positive colonies were picked up through ampicillin selection.
(2) BAF3-TPOR stable transfected cell line: the following method was used to construct the BaF3 cell which stably over-expressed functional human TPO receptor. […] The stable transfected cells BAF3-TPOR were selected with G418 (Gibco, US), then incubated with RPMI1640 medium plus 10% FBS (Gibco, US), […] G418, 5 ng/mL, rmIL-3 (Chemicon, US).
(1) Washing cells by centrifugation: a suitable amount of cell suspension was centrifuged at 1000 rpm for 5 minutes, and the supernatant was discarded. 10 mL of cell culture media without containing IL-3 was added. Then the resulting cell suspension was centrifuged at 1000 rpm for 5 minutes, and the supernatant was discarded.
(2) 1 mL of cell culture media without containing IL-3 was added to beat upon them to equality, and the number of a suitable amount of cell suspension was counted after dilution.
(3) According to the result of the cell counting, a cell suspension in a concentration of 100,000 cell/mL was prepared.
(4) 100 μL of cell suspension was transferred to each well of 96-well culture plate, and there were 3 parallel wells, that is, there were a blank control group (B), a negative control group (N), a positive control group of TPO (P) and a test compound group (S).
(5) The test compound was dissolved in DMSO to prepare a 10 mM stock solution, and then the solution was diluted with RPMI 1640 medium into a series of test samples at different concentration: 30 μM, 10 μM, 3 μM, 1 μM, 0.3 μM, 0.1 μM, 0.03 μM, 0.01 μM, 0.003 μM, 0.001 μM.
(6) 10 μL of test compound solution was transferred to each well respectively; 1 μL of rhTPO (10 μg/mL) was added to positive control well.
(7) The plates were incubated in an incubator at 5% CO2 and 37° C. for 24 hours.
(9) OD value was detected at 450 nm by VICTOR3 (Perkin Elmer 1420-120) plate reader.
(1) The proliferation rate was calculated as follows: Rate=[(S−B)/(P−B)]*100%
S: OD value of wells which contains test compound.
B: OD value of blank control wells
P: OD value of positive control wells
(2) The EC50 value was calculated by Origin 7.0 software.

Series [2] can be described thus: Pharmacokinetics assay in rats after intragastric administration. The class given is in vivo. The settings on record: both sexes, Sprague-Dawley, rat, plasma, po, SD rats, 5 mg/Kg; for Vd/F: read-out: Apparent Distribution Volume Vz/F; for CL/F: read-out: Clearance CL/F (converted); for AUC: read-out: Curve Area AUC; for half-life: read-out: Half-Life t½ (converted); for MRT: read-out: Mean Residence Time MRT; for Cmax: read-out: Plasma Conc. Cmax. On the procedure:
Test Example 1: Pharmacokinetics assay of the compounds of the present disclosure
The pharmacokinetics of the compounds of the present disclosure was studied and evaluated in rats.
The test compound was diluted with 1% sodium carboxymethyl cellulose to 0.5 mg/mL (calculated as the free acid form) of suspension before use.
24 healthy adult SD rats, male and female in half, were divided into […]. After an overnight fast, the rats were administered intragastrically at a dose of 5.0 mg/kg (calculated as the free acid form), at a volume of 10 mL/kg.
24 healthy adult SD rats, male and female in half, were administered intragastrically at a dose of 5.0 mg/kg after an overnight fast. Blood samples (0.2 mL) were taken from eye socket at pre administration and at 0.5, 1.0, 2.0, 3.0, 4.0, 5.0, 6.0, 8.0, 11.0, 14.0, 24.0, 36.0 and 48.0 hours post administration, which were stored in heparinized tubes and centrifuged for 10 minutes at 3,500 rpm. The plasma samples were stored at −20° C. until analysis.
50 μL of rat plasma, obtained at various time points after administration, 20 μL of internal standard solution and 20 μL of a solvent mixture of methanol and water (80:20, v/v) were mixed well, and then 150 μL of methanol was added to result in protein precipitation. Then the mixture was mixed for 1 minute using a vortexer and centrifuged for 10 minutes at 13,000 rpm. 20 μL of the supernatant was analyzed by LC/MS/MS.
50 μL of blank plasma was spiked with a series of standard solutions to produce final concentrations of 1.0, 5.0, 25.0, 50.0, 100.0, 250.0, 500.0 ng/mL, followed by addition of 20 μL of internal standard solution, which was treated according to plasma sample pretreatment protocol. A typical calibration curve equation was obtained with plasma concentration as the abscissa and the chromatographic peak area ratio of sample to internal standard as the ordinate, using weighted least squares method (w=1/x^2) for linear regression.
The compartmental model of pharmacokinetics was fitted for the test compounds and the major pharmacokinetic parameters were calculated in which Cmax and tmax were the actually measured values.

Usually EC50 stands for the midpoint of the concentration-response curve. Read a high EC50 as lower potency in that assay. A word on the AUC: it is the area under the concentration-time curve, a measure of exposure. Usually half-life stands for how long it takes for the measured level to halve. The MRT is the average time that molecules of a dose stay in the body. As usually defined, the Cmax is the maximum level reached in the sampled fluid or tissue.

Compound `CC1=NN(c2ccc(C)c(C)c2)C(=O)/C1=N\Nc1cccc(-c2cccc(C(=O)O)c2)c1O` [Eltrombopag, eltrombopag, reference compound] returned an EC50 in series [1] of 299 nM. Moreover, in series [2], the Vd/F turned out to be 1.53 ± 0.26 L/kg, the CL/F was 3 mL/min/kg, the AUC stood at 29000 ± 3820 ng·h/mL and the half-life is 6.11 ± 1.04 h. In series [2], the MRT is 4.63 ± 1.03 h and the Cmax was determined as 8470 ± 950 ng/mL.
On to `CC1=NN(c2ccc3c(c2)CCCC3)C(=O)/C1=N\Nc1cccc(-c2cccc(C(=O)O)c2)c1O` [Example 3, 2′-Hydroxy-3′-{N′-[3-methyl-5-oxo-1-(5,6,7,8-tetrahydro-naphthalen-2-yl)-1,5-dihydro-pyrazol-4-ylidene]-hydrazino}-biphenyl-3-carboxylic acid], for which the EC50 in series [1] came to 310 nM.
Same read-out and setting: then `CC1=NN(c2ccc3c(c2)CCO3)C(=O)/C1=N\Nc1cc(C)cc(-c2cccc(C(=O)O)c2)c1O` [Example 13, 3′-{N′-[1-(2,3-Dihydro-benzofuran-5-yl)-3-methyl-5-oxo-1,5-dihydro-pyrazol-4-ylidene]-hydrazino}-2′-hydroxy-5′-methyl-biphenyl-3-carboxylic acid], with 141 nM.
In series [1], `CC1=NN(c2ccc3c(c2)CCC3)C(=O)/C1=N\Nc1cc(C)cc(-c2cccc(C(=O)O)c2)c1O` [Example 29, 2′-Hydroxy-3′-[N′-(1-indan-5-yl-3-methyl-5-oxo-1,5-dihydro-pyrazol-4-ylidene)-hydrazino]-5′-methyl-biphenyl-3-carboxylic acid] displayed an EC50 of 124 nM. In addition, in series [2], the Vd/F was 0.77 ± 0.39 L/kg, the CL/F is 2.33 mL/min/kg, the AUC worked out at 44800 ± 19400 ng·h/mL and the half-life is 4.01 ± 0.63 h. Moreover, in series [2], the MRT came out at 4.29 ± 0.8 h and the Cmax amounted to 13000 ± 5960 ng/mL.
In turn, `CC1=NN(c2ccc3c(c2)C(C)(C)CC3(C)C)C(=O)/C1=N\Nc1cccc(-c2ccc(C(=O)O)o2)c1O` [Example 25, 5-(2-Hydroxy-3-{N′-[3-methyl-5-oxo-1-(1,1,3,3-tetramethyl-indan-5-yl)-1,5-dihydro-pyrazol-4-ylidene]-hydrazino}-phenyl)-furan-2-carboxylic acid] came in with a concentration for a half-maximal effect (EC50) in series [1] of 60 nM.
`COC(=O)c1ccc(-c2cccc(N/N=C3\C(=O)N(c4ccc5c(c4)CCCC5)N=C3C)c2O)o1` [Example 54, 5-(2-Hydroxy-3-{N′-[3-methyl-5-oxo-1-(5,6,7,8-tetrahydro-naphthalen-2-yl)-1,5-dihydro-pyrazol-4-ylidene]-hydrazino}-phenyl)-furan-2-carboxylic acid methyl ester] gave an EC50 in series [1] of 133 nM.
Turning to `COC(=O)c1ccc(-c2cccc(N/N=C3\C(=O)N(c4ccc5c(c4)CCC5)N=C3C)c2O)o1` [Example 55, 5-{2-hydroxy-3-[N′-(1-indan-5-yl-3-methyl-5-oxo-1,5-dihydro-pyrazol-4-ylidene)-hydrazino]-phenyl}-furan-2-carboxylic acid methyl ester], in series [1], the EC50 came to 71 nM.
Consider `CC1=NN(c2ccc3c(c2)CCCC3)C(=O)/C1=N\Nc1cc(C)cc(-c2ccc(C(=O)O)o2)c1O` [Example 50, 5-(2-Hydroxy-5-methyl-3-{N′-[3-methyl-5-oxo-1-(5,6,7,8-tetrahydro-naphthalen-2-yl)-1,5-dihydro-pyrazol-4-ylidene]-hydrazino}-phenyl)-furan-2-carboxylic acid], for which the EC50 in series [1] was determined as 126 nM.
On the same count and under the same terms, then `CC1=NN(c2ccc3c(c2)CCO3)C(=O)/C1=N\Nc1cccc(-c2cccc(C(=O)O)c2)c1O` [Example 7, 3′-{N′-[1-(2,3-dihydro-benzofuran-5-yl)-3-methyl-5-oxo-1,5-dihydro-pyrazol-4-ylidene]-hydrazino}-2′-hydroxy-biphenyl-3-carboxylic acid], with 265 nM.
The compound `CC1=NN(c2ccc3c(c2)CCCC3)C(=O)/C1=N\Nc1cccc(-c2csc(C(=O)O)c2)c1O` [Example 51, 4-(2-Hydroxy-3-{N′-[3-methyl-5-oxo-1-(5,6,7,8-tetrahydro-naphthalen-2-yl)-1,5-dihydro-pyrazol-4-ylidene]-hydrazino}-phenyl)-thiophene-2-carboxylic acid] registered an EC50 in series [1] of 55 nM.
